The source of these data is patent publication US20050197350A1, “Novel quinoline, tetrahydroquinazoline, and pyrimidine derivatives and methods of treatment related to the use thereof” (TAISHO PHARMACEUTICAL CO., LTD., priority 2003, published 2005).

For one assay, the system named is MCH receptors. Put plainly: MCH receptor activity class (method not given). The note with it: MCH receptor activity class 1-3 (percent of control at 10^-7 M or IC50).
For the molecule `Cc1cc(Cl)ccc1NC(=S)N[C@H]1CC[C@@H](Nc2nccc(N(C)C)n2)CC1` [compound 2331], the class is 3 (Class 3 The value of percent of control at 10^−7 M was more than 60% or the value of IC50 was more than 200 nM.).

Still in this assay, the particulars now being: MCH receptor; class by percent of control at 10^-7 M or IC50.
Turning to `CN(C)c1nc(N[C@H]2CC[C@@H](NC(=S)Nc3cccc4nsnc34)CC2)nc2c1CCCC2` [compound 2083], the class is on record as 3 (Class 3 The value of percent of control at 10^−7 M was more than 60% or the value of IC50 was more than 200 nM.).
With `CN(C)c1nc(N[C@H]2CC[C@@H](NC(=S)Nc3ccccc3C(F)(F)F)CC2)nc2c1CCCC2` [compound 1969], the class is 3 (Class 3 The value of percent of control at 10^−7 M was more than 60% or the value of IC50 was more than 200 nM.).
As for `CN(C)c1cc(N[C@H]2CC[C@@H](NC(=O)c3ccc(C(F)(F)F)cc3)CC2)nc2ccccc12` [compound 117], the class is 3 (Class 3 The value of percent of control at 10^−7 M was more than 60% or the value of IC50 was more than 200 nM.).
For the molecule `CN(C)c1cc(N[C@H]2CC[C@@H](NC(=O)CC3CCCC3)CC2)nc2ccccc12` [compound 75], the class was 3 (Class 3 The value of percent of control at 10^−7 M was more than 60% or the value of IC50 was more than 200 nM.).

Staying with this assay, now noted: activity class 1-3: percent of control at 10^-7 M or IC50.
Take `COCCOC(=O)NC[C@H]1CC[C@@H](Nc2nc3c(c(N(C)C)n2)CCCC3)CC1` [compound 1605]: the class is given as 3 (Class 3 The value of percent of control at 10^−7 M was more than 60% or the value of IC50 was more than 200 nM.).
`CC(C)[C@@H]1CC[C@@H](C)CC1OC(=O)N[C@H]1CC[C@@H](Nc2nccc(N(C)C)n2)CC1` (some centres unmarked) [compound 1633]: the class was 3 (Class 3 The value of percent of control at 10^−7 M was more than 60% or the value of IC50 was more than 200 nM.).

Still in this assay, the particulars now being: activity class per percent of control at 10^-7 M or IC50.
For `CN(C)c1nc(N[C@H]2CC[C@@H](NC(=O)Cc3cc(C(C)(C)C)c(O)c(C(C)(C)C)c3)CC2)nc2c1CCCC2` [compound 979], the class is given as 3 (Class 3 The value of percent of control at 10^−7 M was more than 60% or the value of IC50 was more than 200 nM.).

Still in this assay, the particulars now being: class 1-3 by percent of control at 10^-7 M or IC50.
For `CN(C)c1ccnc(N[C@H]2CC[C@@H](CNC(=O)c3c(F)cccc3Cl)CC2)n1` [compound 450], the class is 3 (Class 3 The value of percent of control at 10^−7 M was more than 60% or the value of IC50 was more than 200 nM.).
For the molecule `CN(C)c1ccnc(N[C@H]2CC[C@@H](CNC(=O)Cc3ccc(F)cc3)CC2)n1` [compound 413], the class is reported as 3 (Class 3 The value of percent of control at 10^−7 M was more than 60% or the value of IC50 was more than 200 nM.).
As to `CN(C)c1ccnc(N[C@H]2CC[C@@H](CNC(=O)c3cc(Cl)sc3Cl)CC2)n1` [compound 428], the class was 3 (Class 3 The value of percent of control at 10^−7 M was more than 60% or the value of IC50 was more than 200 nM.).
With `CN(C)c1nc(N[C@H]2CC[C@@H](NC(=O)c3ccc(C#N)cc3)CC2)nc2c1CCCC2` [compound 513], the class is reported as 3 (Class 3 The value of percent of control at 10^−7 M was more than 60% or the value of IC50 was more than 200 nM.).
Regarding `CN(C)c1nc(N[C@H]2CC[C@@H](NC(=O)c3ccc(F)cc3)CC2)nc2c1CCCC2` [compound 473], the class is reported as 1 (Class 1: The value of percent of control at 10^−7 M was less than 40% or the value of IC50 was less than 50 nM.).

Staying with this assay, now noted: class by percent of control at 10^-7 M or IC50.
Take `Cc1cccc(C)c1NC(=O)N[C@H]1CC[C@@H](Nc2cc(N(C)C)c3ccccc3n2)CC1` [compound 2090]: the class is given as 3 (Class 3 The value of percent of control at 10^−7 M was more than 60% or the value of IC50 was more than 200 nM.).
`CN(C)c1nc(N[C@H]2CC[C@@H](NC(=O)Nc3cccc(Oc4ccccc4)c3)CC2)nc2c1CCCC2` [compound 1875]: the class is reported as 3 (Class 3 The value of percent of control at 10^−7 M was more than 60% or the value of IC50 was more than 200 nM.).
The same measure, in the same setting: as for `CN(C)c1ccnc(N[C@H]2CC[C@@H](NC(=O)NC(c3ccccc3)c3ccccc3)CC2)n1` [compound 2209, N-(cis-4-{[4-(dimethylamino)pyrimidin-2-yl]amino}cyclohexyl)-N′-(diphenylmethyl)urea], the figure is 1 (Class 1: The value of percent of control at 10^−7 M was less than 40% or the value of IC50 was less than 50 nM.).
With `CN(C)c1ccnc(N[C@H]2CC[C@@H](NC(=O)C3CCCCC3)CC2)n1` [compound 315], the class is on record as 3 (Class 3 The value of percent of control at 10^−7 M was more than 60% or the value of IC50 was more than 200 nM.).
As to `CN(C)c1cc(N[C@H]2CC[C@@H](NCCc3ccc(Br)cc3)CC2)nc2ccccc12` [compound 1447], the class is 3 (Class 3 The value of percent of control at 10^−7 M was more than 60% or the value of IC50 was more than 200 nM.).
On to `COc1cccc(C(=O)NC[C@H]2CC[C@@H](Nc3nccc(N(C)C)n3)CC2)c1` [compound 365], for which the class was 3 (Class 3 The value of percent of control at 10^−7 M was more than 60% or the value of IC50 was more than 200 nM.).
As for `Cc1ccc(NC(=O)N[C@H]2CC[C@@H](Nc3nc4c(c(N(C)C)n3)CCCC4)CC2)c([N+](=O)[O-])c1` [compound 1832], the class is given as 3 (Class 3 The value of percent of control at 10^−7 M was more than 60% or the value of IC50 was more than 200 nM.).
Regarding `COC(=O)c1ccccc1Sc1nc2sccn2c1CN[C@H]1CC[C@@H](Nc2nc3c(c(N(C)C)n2)CCCC3)CC1` [compound 1358], the class is reported as 3 (Class 3 The value of percent of control at 10^−7 M was more than 60% or the value of IC50 was more than 200 nM.).
The same measure, in the same setting: as for `CN(C)c1nc(N[C@H]2CC[C@@H](CNC(=O)c3csc4ccccc34)CC2)nc2c1CCCC2` [compound 653], the figure is 3 (Class 3 The value of percent of control at 10^−7 M was more than 60% or the value of IC50 was more than 200 nM.).
In the case of `COc1ccc(F)c(CNC[C@H]2CC[C@@H](Nc3nccc(N(C)C)n3)CC2)c1` [compound 1285], the class is given as 3 (Class 3 The value of percent of control at 10^−7 M was more than 60% or the value of IC50 was more than 200 nM.).
With `Cc1cc(C(=O)NC[C@H]2CC[C@@H](Nc3nc4c(c(N(C)C)n3)CCCC4)CC2)ccc1Br` [compound 619], the class is given as 3 (Class 3 The value of percent of control at 10^−7 M was more than 60% or the value of IC50 was more than 200 nM.).
With `COc1cc([N+](=O)[O-])ccc1NC(=O)N[C@H]1CC[C@@H](Nc2nc3c(c(N(C)C)n2)CCCC3)CC1` [compound 1861], the class is reported as 3 (Class 3 The value of percent of control at 10^−7 M was more than 60% or the value of IC50 was more than 200 nM.).
As to `CC(CCN[C@H]1CC[C@@H](Nc2nccc(N(C)C)n2)CC1)c1ccccc1` (relative stereo) [compound 1226], the class is on record as 3 (Class 3 The value of percent of control at 10^−7 M was more than 60% or the value of IC50 was more than 200 nM.).
Take `CN(C)c1cc(N[C@H]2CC[C@@H](CNCc3ccccc3OC(F)F)CC2)nc2ccccc12` [compound 1172]: the class was 3 (Class 3 The value of percent of control at 10^−7 M was more than 60% or the value of IC50 was more than 200 nM.).
Take `Cc1ccc(Oc2ncccc2C(=O)N[C@H]2CC[C@@H](Nc3nccc(N(C)C)n3)CC2)cc1` [compound 355, N-(cis-4-{[4-(dimethylamino)pyrimidin-2-yl]amino}cyclohexyl)-2-(4-methylphenoxy)nicotinamide]: the class was 1 (Class 1: The value of percent of control at 10^−7 M was less than 40% or the value of IC50 was less than 50 nM.).
`CN(C)c1nc(N[C@H]2CC[C@@H](NC(=O)Nc3ccc(F)c(C(F)(F)F)c3)CC2)nc2c1CCCC2` [compound 1890]: the class is 3 (Class 3 The value of percent of control at 10^−7 M was more than 60% or the value of IC50 was more than 200 nM.).
As for `Cc1ccc(C(=O)N[C@H]2CC[C@@H](Nc3nccc(N(C)C)n3)CC2)cc1` [compound 269], the class was 3 (Class 3 The value of percent of control at 10^−7 M was more than 60% or the value of IC50 was more than 200 nM.).
As for `COC(CN[C@H]1CC[C@@H](Nc2cc(N(C)C)c3ccccc3n2)CC1)c1ccccc1` (relative stereo) [compound 1450], the class is recorded as 3 (Class 3 The value of percent of control at 10^−7 M was more than 60% or the value of IC50 was more than 200 nM.).
On to `COc1cc(F)c(CNC[C@H]2CC[C@@H](Nc3nccc(N(C)C)n3)CC2)cc1OC` [compound 1321], for which the class was 3 (Class 3 The value of percent of control at 10^−7 M was more than 60% or the value of IC50 was more than 200 nM.).
On to `CN(C)c1ccnc(N[C@H]2CC[C@@H](NC(=O)c3ccc4nonc4c3)CC2)n1` [compound 241, N-(cis-4-{[4-(dimethylamino)pyrimidin-2-yl]amino}cyclohexyl)-2,1,3-benzoxadiazole-5-carboxamide], for which the class is 1 (Class 1: The value of percent of control at 10^−7 M was less than 40% or the value of IC50 was less than 50 nM.).
Consider `CN(C)c1cc(N[C@H]2CC[C@@H](NC(=O)Cc3cc(C(C)(C)C)c(O)c(C(C)(C)C)c3)CC2)nc2ccccc12` [compound 703], for which the class is 3 (Class 3 The value of percent of control at 10^−7 M was more than 60% or the value of IC50 was more than 200 nM.).
Consider `CN(C)c1cc(N[C@H]2CC[C@@H](NC(=O)c3ccnc4ccccc34)CC2)nc2ccccc12` [compound 785], for which the class is reported as 3 (Class 3 The value of percent of control at 10^−7 M was more than 60% or the value of IC50 was more than 200 nM.).

Still in this assay, the particulars now being: class by percent of control at 10^−7 M or IC50.
As for `Cc1cnc(N[C@H]2CC[C@@H](CNC(=O)c3cccnc3Oc3ccc(Cl)c(F)c3)C2)nc1N(C)C` [compound 3020], the class is given as 3 (Class 3 The value of percent of control at 10^−7 M was more than 60% or the value of IC50 was more than 200 nM.).
Take `Cc1cc(N(C)C)nc(N[C@H]2CC[C@@H](NC(=O)c3ccc(Cl)c(C(F)(F)F)c3)CC2)n1` [compound 2982]: the class is 1 (Class 1: The value of percent of control at 10^−7 M was less than 40% or the value of IC50 was less than 50 nM.).
`Cc1nc(N[C@H]2CC[C@@H](NCc3ccc(F)c(F)c3)CC2)nc(N(C)C)c1C` [compound 2866]: the class is listed as 2 (Class 2: The value of percent of control at 10^−7 M was from 40% to 60% or the value of IC′50 was from 50 nM to 200 nM.).
